Drawing on PubChem BioAssay (NCI), this text covers GI50 and TGI for 6 compounds.

Among the test systems are BT-549 breast; CCRF-CEM leukemia; LOX IMVI melanoma; NCI/ADR-RES ovarian; PC-3 prostate; SF-295 CNS; SK-MEL-5 melanoma; SN12C renal; SW-620 colon; UACC-257 melanoma.
Assay in all cases: NCI-60 cell line screen, 48 h

Several values for one entry are separate records, joined by “and”; a condition that tells them apart may be missing. Equal values may be shown once.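 Interpolation was linear, between the two tested concentrations surrounding the appropriate level; five concentrations were tested over 48 hours in 96-well plates. Here, GI50 denotes the concentration required for 50% inhibition of growth. TGI is the concentration that stops growth completely.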 Bounds are passed on as bounds.

With `COc1ccc(N=N/C(C(=O)C(F)(F)F)=C(\O)c2ccc(Cl)cc2)cc1`, the GI50 in the assay with BT-549 breast is 7.04 µM; with CCRF-CEM leukemia, 4.61 µM; in the assay with LOX IMVI melanoma it was 3.29 µM; with NCI/ADR-RES ovarian it was 3.56 µM; in the assay with PC-3 prostate it was 10.4 µM; in the assay with SF-295 CNS it was 2.67 µM. Besides, the GI50 in the assay on SK-MEL-5 melanoma was 3.63 µM; in the assay with SN12C renal, 16.6 µM; with SW-620 colon it was 4.36 µM; in the assay on UACC-257 melanoma it was 4.57 µM. Further, the TGI in the assay with BT-549 breast is 47.2 µM; with CCRF-CEM leukemia, more than 100 µM; in the assay on LOX IMVI melanoma, 21.5 µM; in the assay with NCI/ADR-RES ovarian it was 23.2 µM; in the assay on PC-3 prostate, more than 100 µM; with SF-295 CNS, 11.9 µM. Moreover, the TGI was 14.3 µM in the assay on SK-MEL-5 melanoma, more than 100 µM in the assay with SN12C renal, more than 100 µM with SW-620 colon and 36.2 µM with UACC-257 melanoma.
For `CN1C(=O)C2(c3ccccc31)N(c1ccc(Cl)cc1)C(=O)C2(c1ccccc1)c1ccccc1` (stereo not given), the GI50 is more than 100 µM in the assay on BT-549 breast; 9.72 µM in the assay with CCRF-CEM leukemia; more than 100 µM with LOX IMVI melanoma; 34.7 µM in the assay on NCI/ADR-RES ovarian; 5.63 µM with PC-3 prostate; 11 µM in the assay with SF-295 CNS. Further, the GI50 was 54.5 µM in the assay with SK-MEL-5 melanoma, 94.3 µM with SN12C renal, more than 100 µM in the assay on SW-620 colon and 47.6 µM in the assay with UACC-257 melanoma. The TGI in the assay with BT-549 breast, in the assay with CCRF-CEM leukemia, in the assay with LOX IMVI melanoma, in the assay on NCI/ADR-RES ovarian, with PC-3 prostate and with SF-295 CNS was more than 100 µM each time. Moreover, the TGI with SK-MEL-5 melanoma, in the assay with SN12C renal, with SW-620 colon and with UACC-257 melanoma was more than 100 µM each time.
Turning to `CC1=C(C(=O)Nc2ccc(Cl)c(C(=O)OC(C)C)c2)SCCO1`, the TGI was more than 100 µM in the assay with BT-549 breast; 65.1 µM in the assay with CCRF-CEM leukemia; 84.6 µM in the assay with LOX IMVI melanoma; more than 91.8 µM in the assay on NCI/ADR-RES ovarian; more than 100 µM in the assay on PC-3 prostate; more than 80.7 µM in the assay on SF-295 CNS. Further, the TGI in the assay on SK-MEL-5 melanoma is 81.4 µM; in the assay on SN12C renal it was more than 100 µM; in the assay with SW-620 colon, more than 79.4 µM; with UACC-257 melanoma it was more than 89.8 µM.
With `CCN(CC)Cc1cc2[nH]c3c4ccc(Cl)cc4ncc3c2cc1OC`, the GI50 was 13.7 µM and 16 µM in the assay with BT-549 breast; 2.52 µM and 1.8 µM in the assay on CCRF-CEM leukemia; 1.73 µM and 1.7 µM in the assay on LOX IMVI melanoma; 3.67 µM and 3.31 µM in the assay on NCI/ADR-RES ovarian; 3.18 µM and 1.99 µM in the assay on PC-3 prostate; 4.98 µM and 1.95 µM with SF-295 CNS. Further, the GI50 in the assay on SK-MEL-5 melanoma is 1.61 µM and 1.62 µM; in the assay with SN12C renal it was 10.8 µM and 13.7 µM; with SW-620 colon it was 2.3 µM and 1.91 µM; in the assay on UACC-257 melanoma it was 2.79 µM and 1.82 µM. The TGI in the assay with BT-549 breast is 27.2 µM and 29.6 µM; with CCRF-CEM leukemia, > 19.7 µM and 4.57 µM; with LOX IMVI melanoma, 3.43 µM and 3.23 µM; in the assay with NCI/ADR-RES ovarian it was 13.5 µM and 12 µM; with PC-3 prostate, 16 µM and 6.8 µM; in the assay on SF-295 CNS it was 9.67 µM and 4.01 µM. The TGI in the assay with SK-MEL-5 melanoma was 3 µM and 2.98 µM; in the assay on SN12C renal, 22.7 µM and 26.7 µM; with SW-620 colon it was 6.72 µM and 4.44 µM; in the assay with UACC-257 melanoma, 6.92 µM and 3.45 µM.
With `O=C1NC(=NCCCc2ccccc2)S/C1=C\c1ccc2ncccc2c1`, the GI50 with BT-549 breast was 4.58 µM; with CCRF-CEM leukemia, 7.11 µM; in the assay with LOX IMVI melanoma, 5.12 µM; in the assay with NCI/ADR-RES ovarian it was 6.5 µM; in the assay with PC-3 prostate it was 5.62 µM; in the assay on SF-295 CNS it was 4.75 µM. Moreover, the GI50 is 4.63 µM in the assay on SK-MEL-5 melanoma, 6.13 µM with SN12C renal, 6.37 µM in the assay on SW-620 colon and 6.73 µM in the assay with UACC-257 melanoma. Besides, the TGI with BT-549 breast was 10.4 µM; in the assay on CCRF-CEM leukemia, more than 25 µM; with LOX IMVI melanoma, 14.6 µM; with NCI/ADR-RES ovarian, 17.1 µM; in the assay on PC-3 prostate it was 15.9 µM; in the assay with SF-295 CNS, more than 17.5 µM. The TGI is 9.8 µM in the assay on SK-MEL-5 melanoma, 20.9 µM with SN12C renal, more than 21.5 µM in the assay on SW-620 colon and 22.9 µM in the assay with UACC-257 melanoma.
Turning to `COc1cc2c(=O)[nH]c3cc([N+](=O)[O-])ccc3c2cc1[N+](=O)[O-]`, the GI50 in the assay with BT-549 breast is 7.89 µM; in the assay with CCRF-CEM leukemia, 3.99 µM; in the assay on LOX IMVI melanoma, 3.51 µM; in the assay with NCI/ADR-RES ovarian, 5.29 µM; with PC-3 prostate, 6.07 µM; in the assay on SF-295 CNS, 6.27 µM. Moreover, the GI50 in the assay on SK-MEL-5 melanoma was 4.63 µM; in the assay on SN12C renal it was 9.97 µM; in the assay on SW-620 colon it was 3.81 µM; with UACC-257 melanoma it was 3.28 µM. Also, the TGI with BT-549 breast, in the assay on CCRF-CEM leukemia, with LOX IMVI melanoma, in the assay with NCI/ADR-RES ovarian, in the assay with PC-3 prostate and in the assay on SF-295 CNS was more than 100 µM each time. Besides, the TGI in the assay with SK-MEL-5 melanoma, in the assay on SN12C renal, in the assay with SW-620 colon and in the assay with UACC-257 melanoma was more than 100 µM in each case.
